{"source": "patent US10196357B2", "about": "“Biaryl compositions and methods for modulating a kinase cascade” (Athenex, Inc., priority 2007, dated 2019)", "key": {"[1]": {"assay": "plasma exposure after oral administration", "format": "in vivo, male CD-1 mice", "settings": "for concentration at 0.5 h / concentration at 1 h / concentration at 2 h / concentration at 5 h / AUC(0-t) / Cmax / Tmax: male, CD-1, mouse; for concentration at 0.5 h / concentration at 1 h / concentration at 2 h / concentration at 5 h: plasma, po; for AUC(0-t) / Cmax / Tmax: Plasma", "protocol": "Plasma concentrations were measured in mice after oral administration. All doses were formulated in purified water. Four groups of male CD-1 mice were dosed after an overnight fast and fed 4 hours post-dose. Dosing was as follows:\nProtein was precipitated with 0.25 mL acetonitrile for plasma, 0.25 mL for brain. After centrifugation, supernatant was directly injected into an LC/MS system. The limit of quantitation was 1 ng/mL using a 50 μL aliquot for plasma and a 50 μL, aliquot for brain. The standard curve was 1 to 1,000 ng/mL for both plasma and brain. HPLC conditions were as follows:\nHPLC System: Shimadzu SCL-10 System\n• Analytical Column: Aquasil C18 5 μm 100×2 mm column. • Column Temperature: Ambient temperature • Autosampler Temperature: Ambient temperature • Mobile Phase A) 10 mM Ammonium formate in water (pH 4). • B) Acetonitrile. • Flow Rate: 0.6 mL/min • Injection Volume: 2 μL • Gradient:\n• Mass Spectrometry Conditions were as follows: • Instrument: ABI Sciex API 4000 • Mode: ESI+ • Experiment: MRM (multiple reaction monitoring) • Transitions: KX2-391: m/z 432.4→114.2 (Rt=3.11 minute) • KX2-361: m/z 406.1→253.2 (Rt=3.33 minute)"}, "Shc Y239/240": {"tested_on": "Shc Y239/240", "assay": "intracellular phosphorylation, Shc Y239/240", "format": "cell-based", "settings": "whole cells", "protocol": "(§1) HT29 (colon cancer) and c-Src527F/NIH-3T3 (Src transformed) cell lines were treated with KX2-391 or with AstraZeneca's ATP competitive Src inhibitor AZ28. AZ28 serves as a positive comparator to show what a validated Src inhibitor should do in these assays. After treatment with compound, cells were lysed, subjected to PAGE and probed with a battery of antibodies. […] In addition, off-target protein phosphorylation was also investigated. Further, induction of apoptosis was evaluated via Caspase 3 cleavage. Multiple doses of each compound were tested because the trends in response to increasing drug concentration are the most reliable indicator of activity.\n(§2) The same range of multiples of the GI50 for AZ28 in these two cell lines was run as a comparison.\n(§3) KX2-391 and AZ28 inhibited Src transphosphorylation."}, "SKOV-3 (Ovarian)": {"tested_on": "SKOV-3 (Ovarian)", "assay": "growth inhibition (BrdU), SKOV-3", "format": "cell-based, Human", "settings": "Homo sapiens, SK-OV-3, SKOV-3, BrdU, T=72", "text": "(§4) Growth Inhibition. […] T1 values≤T0 values were designated as T, cytotoxicity."}, "MAPK2(h)": {"biological_target": "MAPK2(h) (Homo sapiens, UniProt P28482)", "sequence (P28482 whole entry)": "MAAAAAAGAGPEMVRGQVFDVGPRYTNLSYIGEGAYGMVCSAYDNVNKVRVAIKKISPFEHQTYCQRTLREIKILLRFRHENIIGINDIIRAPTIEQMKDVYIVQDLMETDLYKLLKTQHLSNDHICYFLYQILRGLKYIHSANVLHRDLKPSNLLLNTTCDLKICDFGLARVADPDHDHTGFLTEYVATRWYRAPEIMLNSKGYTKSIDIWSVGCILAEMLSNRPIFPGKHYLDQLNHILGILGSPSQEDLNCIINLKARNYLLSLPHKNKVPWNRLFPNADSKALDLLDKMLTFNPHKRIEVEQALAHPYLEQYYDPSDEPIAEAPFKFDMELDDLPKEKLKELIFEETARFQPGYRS", "assay": "isolated kinase activity, MAPK2", "format": "biochemical", "settings": "compound @ 10 μM", "text": "(§5) Table 8 illustrates percent activity of isolated kinases in the presence of the AstraZeneca ATP-competitive inhibitor (KX2-328, AZ-28) or KX2-391 relative to control (untreated) isolated kinases."}, "L3.6pl cells": {"tested_on": "L3.6pl cells", "assay": "growth inhibition (BrdU), L3.6pl", "format": "cell-based, human", "settings": "Homo sapiens, L3.6pl, L3.6pl (Pancreas) cells, single agent", "text": "L3.6pl cells are previously described in Trevino et al. Am J Pathol."}, "PDGFRβ(h)": {"biological_target": "PDGFRβ(h) (Homo sapiens, UniProt P09619)", "sequence (P09619 33-1106)": "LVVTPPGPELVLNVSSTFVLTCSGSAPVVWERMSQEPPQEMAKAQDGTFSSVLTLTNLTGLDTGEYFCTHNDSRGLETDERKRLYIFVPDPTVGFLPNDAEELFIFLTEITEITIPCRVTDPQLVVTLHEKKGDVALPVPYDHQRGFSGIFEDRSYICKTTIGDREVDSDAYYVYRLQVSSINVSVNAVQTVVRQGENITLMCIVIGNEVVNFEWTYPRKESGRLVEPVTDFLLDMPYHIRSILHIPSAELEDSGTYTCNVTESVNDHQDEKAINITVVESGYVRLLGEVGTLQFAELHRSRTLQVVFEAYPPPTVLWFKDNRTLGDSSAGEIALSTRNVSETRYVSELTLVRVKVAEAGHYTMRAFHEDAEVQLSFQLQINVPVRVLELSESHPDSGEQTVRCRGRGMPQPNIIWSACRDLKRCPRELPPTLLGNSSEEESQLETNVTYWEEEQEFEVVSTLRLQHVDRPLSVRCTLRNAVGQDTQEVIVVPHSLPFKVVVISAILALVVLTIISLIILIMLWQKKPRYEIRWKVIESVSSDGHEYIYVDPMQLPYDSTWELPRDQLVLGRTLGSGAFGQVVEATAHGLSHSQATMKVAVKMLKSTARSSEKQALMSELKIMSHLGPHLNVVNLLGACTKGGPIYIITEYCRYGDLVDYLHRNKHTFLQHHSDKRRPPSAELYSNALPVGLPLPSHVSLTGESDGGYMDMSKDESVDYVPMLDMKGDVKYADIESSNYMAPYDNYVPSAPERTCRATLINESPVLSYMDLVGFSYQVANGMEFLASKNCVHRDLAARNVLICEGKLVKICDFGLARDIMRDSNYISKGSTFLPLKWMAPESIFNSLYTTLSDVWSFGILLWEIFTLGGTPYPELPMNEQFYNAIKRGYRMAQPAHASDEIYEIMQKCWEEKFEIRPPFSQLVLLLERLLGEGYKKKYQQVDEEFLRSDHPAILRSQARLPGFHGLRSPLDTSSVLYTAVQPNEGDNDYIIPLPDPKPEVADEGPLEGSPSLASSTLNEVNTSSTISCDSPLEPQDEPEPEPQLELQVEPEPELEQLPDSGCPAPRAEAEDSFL", "assay": "isolated kinase activity, PDGFRβ", "format": "biochemical", "settings": "compound @ 10 μM", "text": "as §5"}, "Fyn(h)": {"biological_target": "Fyn(h) (Homo sapiens, UniProt P06241)", "sequence (P06241 whole entry)": "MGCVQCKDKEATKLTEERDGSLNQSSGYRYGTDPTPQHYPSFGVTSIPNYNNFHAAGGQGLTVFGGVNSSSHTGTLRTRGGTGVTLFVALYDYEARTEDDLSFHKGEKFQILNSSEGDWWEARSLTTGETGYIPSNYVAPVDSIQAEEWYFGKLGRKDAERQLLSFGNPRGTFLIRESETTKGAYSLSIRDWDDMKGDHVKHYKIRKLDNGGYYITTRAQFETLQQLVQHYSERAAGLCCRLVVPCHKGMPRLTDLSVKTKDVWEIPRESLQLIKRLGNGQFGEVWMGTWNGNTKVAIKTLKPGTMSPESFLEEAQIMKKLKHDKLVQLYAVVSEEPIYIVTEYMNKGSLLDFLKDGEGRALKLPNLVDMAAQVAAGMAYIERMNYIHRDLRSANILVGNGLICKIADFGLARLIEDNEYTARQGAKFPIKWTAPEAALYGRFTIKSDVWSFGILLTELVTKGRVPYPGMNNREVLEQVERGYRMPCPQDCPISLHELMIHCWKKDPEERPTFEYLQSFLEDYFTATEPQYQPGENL", "assay": "isolated kinase activity, Fyn", "format": "biochemical", "settings": "compound @ 10 μM", "text": "as §5"}, "K562 (CML)": {"tested_on": "K562 (CML)", "assay": "growth inhibition (BrdU), K562", "format": "cell-based, Human", "settings": "Homo sapiens, K562, K562, BrdU, T=72", "text": "as §4"}, "Caspase-3 cleavage": {"tested_on": "Caspase-3 cleavage", "assay": "induction of apoptosis via Caspase 3 cleavage", "format": "cell-based", "settings": "HT29 and c-Src527F/NIH-3T3 cells", "protocol": "as §1, §2\nCleavage of Caspase-3 is a good measure of induction of apoptosis."}, "FAK Tyr 925": {"tested_on": "FAK Tyr 925", "assay": "intracellular phosphorylation, FAK Tyr 925", "format": "cell-based", "settings": "whole cells", "protocol": "as §1, §2, §3"}, "[2]": {"assay": "body weight in GL261 glioma survival study", "format": "in vivo", "settings": "5 mg/kg, C57BL/6 mice", "protocol": "A brain tumor mouse xenograft study was conducted comparing KX2-361 and KX2-391 (KXO1) to Temodar®. The studies were conducted in C57BL/6 mice. GL261 glioma cells (1×10^5 in 5 μl DMEM) were implanted intracranial coordinates: bregma, lateral 2.0 mm, anterior 1.2 mm, 3.0 mm depth dura. Treatment was initiated 3 days post implantation. The groups were as follows (all doses in 100 μl H2O):\nFIGS. 49A-E show the weight gain in each of the C57BL/6 mice in the different treatment groups. The average weight at endpoint for each of the treatment groups is shown below in Table 30. FIG. 50 is a graph showing the average weights over a 40-day period for each of the treatment groups."}}, "note": "“And” between values parts separate entries of the source, which are not always exact repeats. Equal values may be shown once. Read-outs that look alike come from different tables or passages of the source."}
{"smiles": "O=C(Cc1ccc(-c2ccc(OCCN3CCOCC3)cc2)cn1)NCc1ccccc1", "note": "[KX2-391]", "values": [{"measurement": "concentration at 0.5 h", "setting": "[1]; 10 mg/kg, single PO dose 10 mg/kg (Group 1), 0.5 hr, read-out: Plasma Concentrations, Group A, B, C", "result": 779, "unit": "ng/mL"}, {"measurement": "concentration at 0.5 h", "setting": "[1]; 10 mg/kg, single PO dose 10 mg/kg (Group 1), 0.5 hr, read-out: Plasma Concentrations, Mean", "result": 871, "unit": "ng/mL"}, {"measurement": "concentration at 1 h", "setting": "[1]; 10 mg/kg, single PO dose 10 mg/kg (Group 1), 1 hr, read-out: Plasma Concentrations, Mean", "result": 363, "unit": "ng/mL"}, {"measurement": "concentration at 2 h", "setting": "[1]; 10 mg/kg, single PO dose 10 mg/kg (Group 1), 2 hr, read-out: Plasma Concentrations, Group A, B, C", "result": 328, "unit": "ng/mL"}, {"measurement": "concentration at 2 h", "setting": "[1]; 10 mg/kg, single PO dose 10 mg/kg (Group 1), 2 hr, read-out: Plasma Concentrations, Mean", "result": 287, "unit": "ng/mL"}, {"measurement": "concentration at 5 h", "setting": "[1]; 10 mg/kg, single PO dose 10 mg/kg (Group 1), 5 hr, read-out: Plasma Concentrations, Group A, B, C", "result": 133, "unit": "ng/mL"}, {"measurement": "concentration at 5 h", "setting": "[1]; 10 mg/kg, single PO dose 10 mg/kg (Group 1), 5 hr, read-out: Plasma Concentrations, Mean", "result": 147, "unit": "ng/mL"}, {"measurement": "concentration at 0.5 h", "setting": "[1]; 50 mg/kg, single PO dose 50 mg/kg (Group 2), 0.5 hr, read-out: Plasma Concentrations, Group A, B, C", "result": 8510, "unit": "ng/mL"}, {"measurement": "concentration at 0.5 h", "setting": "[1]; 50 mg/kg, single PO dose 50 mg/kg (Group 2), 0.5 hr, read-out: Plasma Concentrations, Mean", "result": 9720, "unit": "ng/mL"}, {"measurement": "concentration at 1 h", "setting": "[1]; 50 mg/kg, single PO dose 50 mg/kg (Group 2), 1 hr, read-out: Plasma Concentrations, Group A, B, C", "result": 2370, "unit": "ng/mL"}, {"measurement": "concentration at 1 h", "setting": "[1]; 50 mg/kg, single PO dose 50 mg/kg (Group 2), 1 hr, read-out: Plasma Concentrations, Mean", "result": 2060, "unit": "ng/mL"}, {"measurement": "concentration at 2 h", "setting": "[1]; 50 mg/kg, single PO dose 50 mg/kg (Group 2), 2 hr, read-out: Plasma Concentrations, Group A, B, C", "result": 1150, "unit": "ng/mL"}, {"measurement": "concentration at 2 h", "setting": "[1]; 50 mg/kg, single PO dose 50 mg/kg (Group 2), 2 hr, read-out: Plasma Concentrations, Mean", "result": 1510, "unit": "ng/mL"}, {"measurement": "concentration at 5 h", "setting": "[1]; 50 mg/kg, single PO dose 50 mg/kg (Group 2), 5 hr, read-out: Plasma Concentrations, Mean", "result": 922, "unit": "ng/mL"}, {"measurement": "AUC(0-t)", "setting": "[1]; single oral dose 10 mg/kg", "result": 1500, "unit": "ng·h/mL"}, {"measurement": "Cmax", "setting": "[1]; single oral dose 10 mg/kg", "result": 871, "unit": "ng/mL"}, {"measurement": "Tmax", "setting": "[1]; single oral dose 10 mg/kg", "result": 30, "unit": "min"}, {"measurement": "AUC(0-t)", "setting": "[1]; single oral dose 50 mg/kg", "result": 10800, "unit": "ng·h/mL"}, {"measurement": "Cmax", "setting": "[1]; single oral dose 50 mg/kg", "result": 9720, "unit": "ng/mL"}, {"measurement": "Tmax", "setting": "[1]; single oral dose 50 mg/kg", "result": 30, "unit": "min"}, {"measurement": "Plasma Concentrations, Group A, B, C", "setting": "[1]; single PO dose 10 mg/kg (Group 1), 0.5 hr, 10 mg/kg", "result": "1096.62 ng/mL and 737.37 ng/mL"}, {"measurement": "Plasma Concentrations, Group A, B, C", "setting": "[1]; single PO dose 10 mg/kg (Group 1), 2 hr, 10 mg/kg", "result": "271.89 ng/mL and 261.57 ng/mL"}, {"measurement": "Plasma Concentrations, Group A, B, C", "setting": "[1]; single PO dose 10 mg/kg (Group 1), 5 hr, 10 mg/kg", "result": "147.74 ng/mL and 160.62 ng/mL"}, {"measurement": "Plasma Concentrations, Group A, B, C", "setting": "[1]; single PO dose 50 mg/kg (Group 2), 0.5 hr, 50 mg/kg", "result": "8334.53 ng/mL and 12315.31 ng/mL"}, {"measurement": "Plasma Concentrations, Group A, B, C", "setting": "[1]; single PO dose 50 mg/kg (Group 2), 1 hr, 50 mg/kg", "result": "2442.20 ng/mL and 1365.56 ng/mL"}, {"measurement": "Plasma Concentrations, Group A, B, C", "setting": "[1]; single PO dose 50 mg/kg (Group 2), 2 hr, 50 mg/kg", "result": "1546.09 ng/mL and 1850.18 ng/mL"}, {"measurement": "phosphorylation of Shc Y239/240 (Src transphosphorylation)", "setting": "Shc Y239/240", "result": "inhibited"}, {"measurement": "GI50", "setting": "SKOV-3 (Ovarian)", "result": 9.75, "unit": "nM"}, {"measurement": "percent activity of isolated kinase relative to control", "setting": "MAPK2(h)", "result": 112, "unit": "%"}, {"measurement": "GI50", "setting": "L3.6pl cells", "result": 53, "unit": "nM"}, {"measurement": "percent activity of isolated kinase relative to control", "setting": "PDGFRβ(h)", "result": 110, "unit": "%"}, {"measurement": "percent activity of isolated kinase relative to control", "setting": "Fyn(h)", "result": 85, "unit": "%"}, {"measurement": "GI50", "setting": "K562 (CML)", "result": 10.9, "unit": "nM"}, {"measurement": "induction of apoptosis (Caspase-3 cleavage)", "setting": "Caspase-3 cleavage", "result": "very effective in inducing apoptosis"}, {"measurement": "phosphorylation of FAK Tyr 925 (Src transphosphorylation)", "setting": "FAK Tyr 925", "result": "inhibited"}, {"measurement": "Average weight at endpoint", "setting": "[2]", "result": 14.3, "unit": "g"}]}
